From patent publication US20160289280A1, “Fusion protein of recombinant ganoderma immunoregulatory protein and human serum albumin, preparation method thereof, and application thereof” (priority 2013, published 2016)
Marks after values point to notes of the source that are not given here.

Tests used:
[1] = tested on: mouse transplanted tumor S180; test: subcutaneous inhibition of mouse transplanted tumor S180; format: in vivo; settings: positive control 20 mg·kg^−1, abdominally injected
Description: In vivo experiment: experimental material: mice weighing 18-22 g from Laboratory Animal Center of Jilin University; Ehrlich ascites tumor cell strains are provided by a lab of the inventor; cytoxan (CTX) is from Jiangsu Hengrui Medicine Co., Ltd, whose batch number is 06101921; 5180 ascites tumor and soild tumor experimental groups respectively comprises a normal control group, a negative control group, a positive control group, an rLZ-8 low-dosage group (0.25 mg·kg^−1), an rLZ-8 middle-dosage group (0.5 mg·kg^−1), an rLZ-8 high-dosage group (1 mg·kg^−1), an rLZ-8-HSA low-dosage group (0.25 mg·kg^−1), an rLZ-8-HSA middle-dosage group (0.5 mg·kg^−1), and an rLZ-8-HSA high-dosage group (1 mg·kg^−1), wherein dosages of the rLZ-8-HSA groups are judged from LZ-8 dosage, wherein each group comprises 10 mice.
tumor inhibition rate (%)=(average tumor weight of control groups−average tumor weight of experimental groups)/average tumor weight of control groups×100%.

[2] = tested on: mouse melanoma cells B16-F10; test: mouse B16-F10 transplanted tumor model, in situ tumor weight; format: in vivo; settings: 2.5 mg/kg, 5 days, again after 3 weeks, 28 day cycle
Description: In vivo experiment: firstly, establishing a mouse tumor mould, wherein mouse melanoma cells B16-F10 is cultured with the DMEM comprising 10% fetal calf serum at 37° C. in a CO2 incubation device; slowly subcutaneously injecting 200 μl B16-F10 cell suspension (comprising 1×10^7 cells) with a 1 ml injector at mouse dorsal-ventral skin, so as to establish a mouse transplanted tumor mould.

[3] = tested on: platelets; test: treatment of mouse thrombocytopenia caused by cyclophosphamide, platelet count; format: in vivo
Description: Experimental medicine: preparing a 19.25 μg·kg^−1 and a 9.625 μg·kg^−1 dosage groups of the recombinant ganoderma immunoregulatory protein (rLZ-8) with sterile injection water, and 0.2 ml per mouse; and preparing a 19.25 μg·kg^−1 and a 9.625 μg·kg^−1 dosage groups (judging from the LZ-8) of the fusion protein rLZ-8-HSA of the recombinant ganoderma immunoregulatory protein.
Positive control medicine: thrombopoietin (THPO) from Shenyang 3SBio Inc., with a dosage of 770 μg·kg^−1/d and 0.2 ml per mouse.
Chemotherapy medicine: cyclophosphamide (Cy) from Jiangsu Hengrui Medicine Co., Ltd, whose batch number is 12112121, 200 mg/bottle; preparing into 100 mg·kg^−1, 0.2 ml per mouse with sterile injection water.
Platelet dilution: urea: 1.3 g; sodium citrate: 0.5 g; formaldehyde: 0.1 ml; adding distilled water to 100 ml for mixing, then filtering for further utilization.
Experimental method: dividing experimental animals into 5 groups, wherein each group comprises 10 mice with 5 males and 5 females; except for a normal control group (injected with normal saline having an equal volume), abdominally injecting the cyclophosphamide to the mice with a dosage of 100 mg·kg^−1, 0.2 ml per mouse per day, and lasting for three days; when a platelet quantity decreased to below 300×10^9/L, subcutaneously injecting the rLZ-8, the fusion protein rLZ-8-HAS (19.25 μg·kg^−1, 9.625 μg·kg^−1, 0.2 ml·per mouse per day) and the positive medicine (THPO 770 μg·kg^−1, 0.2 ml·per mouse per day) according to the above groups with corresponding dosages, and injecting the normal saline having the equal volume to the normal control group and a CP group; respectively sampling mouse tail vein blood 3 d, 7 d and 14 d after treatment, counting platelets with high power lens, wherein results thereof are listed in table 7.

[4] = tested on: mouse spleen cells; test: promotion of mouse spleen cell proliferation, WST-1 method; format: cell-based; settings: for OD450, promotion of cell proliferation: 24 h, x ± s, n = 9; for promotion of spleen cell proliferation compared with rLZ-8: same protein concentration
Description: Testing effects of the fusion proteins on mouse spleen cell proliferation by a WST-1 method, which illustrates strength of biological activity, wherein according to the present invention, BALB/c female mice are used, whose weight is controlled at 20-22 g; executing the mice by stretching necks thereof, taking out spleens under a sterile condition, and putting into a plate with 5 ml DMEM comprising 10% calf serum; cracking the spleens with tweezers, filtering tissue suspension with gauze for removing tissue blocks, and preparing cell suspension of spleen cells; adding 100 μl the tissue suspension into 900 μl 2% glacial acetic acid for counting with a microscope; adjusting a cell concentration to 5×10^6/ml with DMEM comprising 2% calf serum; respectively preparing the fusion proteins and the rLZ-8 with same molar concentration gradient, wherein there are 3 gradient concentrations, each concentration occupies 9 wells with 100 μl per well; adding tissue suspension with a concentration of 5×10^6/ml with 100 μl per well; shaking for evenly mixing, and then putting into a 37° C., 5% CO2 incubation device to incubate for 24 h; after incubation, adding WST-1 with 20 μl per well; putting into the 37° C., 5% CO2 incubation device to incubate for 3 h, then testing OD450 (with a BIO-RAD); wherein results are listed in table 1.

[5] = tested on: leukocytes; test: treatment of rat models with leucopenia caused by cyclophosphamide, leukocyte count; format: in vivo; settings: positive medicine 13.5 μg/ml, 0.1 ml per rat
Description: Utilizing Wistar rats in the experiments, wherein 18 rats weighing about 100 g are utilized. […] The experiment has an rLZ-8 low-dosage group, an rLZ-8 middle-dosage group, an rLZ-8 high-dosage group, an rLZ-8-HSA low-dosage group, an rLZ-8-HSA middle-dosage group, an rLZ-8-HSA high-dosage group, and a positive medicine control group (utilizing the […]®). […] On the third day, the blood is sampled from the tail vein, and the leukocytes are counted by a cytoanalyzer. After successful modeling, the rats of each the group are respectively treated with the rLZ-8, the three kinds of the fusion proteins, or the positive medicine (the […]®) with the corresponding dosage, and the equal sterile saline is given to the rats of the normal control and a CP group. The blood is sampled from the tail vein on the first, third and seventh treatment days, and the leukocytes are counted by the cytoanalyzer. Medicine efficacy is analyzed according to a number difference of the leukocyte between before and after the treatment.

[6] = 770 μg·kg^−1 subcutaneously per day

With `O=P1(N(CCCl)CCCl)NCCCO1` (stereo not drawn) [CTX, cyclophosphamide, reference compound] the Inhibition rate [1] was 64.3% and the tumor weight [1] was 0.36 ± 0.02 g.

`CN(C)/N=N/c1[nH]cnc1C(N)=O` [dacarbazine, reference compound] showed a tumor inhibition rate [2] of 62.57 ± 0.27% and a tumor weight [2] of 0.52 ± 0.12 g.

For “THPO: thrombopoietin (THPO) from Shenyang 3SBio Inc., positive control medicine [reference compound]”, the platelets after ([3]; 770 μg·kg^−1 group, after cyclophosphamide, before treatment) was 284 ± 0.19 *10^9/L, the platelets before ([3]; 770 μg·kg^−1 group, baseline before cyclophosphamide) was 851 ± 0.34 *10^9/L and the “platelets 3rd day” value [3, 6] was 390 ± 0.38 *10^9/L. For the same molecule, the “platelets 7th day” value [3, 6] was 420 ± 0.32 *10^9/L and the “platelets 14th day” value [3, 6] was 689 ± 0.65 *10^9/L.

For “rLZ-8-Fc4: fusion protein of ganoderma immunoregulatory protein (LZ-8) and human IgG4Fc fragment, SEQ ID NO. 3”, the “OD450, promotion of cell proliferation” value ([4]; protein 5.0 × 10^−9 mol/L) was 0.452 ± 0.43, the “OD450, promotion of cell proliferation” value ([4]; protein 10.0 × 10^−9 mol/L) was 0.840 ± 0.27 and the “OD450, promotion of cell proliferation” value ([4]; protein 15.0 × 10^−9 mol/L) was 0.929 ± 0.21. For the same molecule, the “promotion of spleen cell proliferation compared with rLZ-8” value [4] was “significantly decreased”.

B1: GenLei ® Scimax ®: recombinant human granulocyte colony-stimulating factor injection (rhG-CSF), positive medicine (protein, UniProt P09919 31-207, looked up)
Granulocyte …: TPLGPASSLPQSFLLKCLEQVRKIQGDGAALQEKLVSECATYKLCHPEELVLLGHSLGIPWAPLSSCPSQALQLAGCLSQLHSGLFLYQGLLQALEGISPELGPTLDTLQLDVADFATTIWQQMEELGMAPALQPTQGAMPAFASAFQRRAGGVLVASHLQSFLEVSYRVLRHLAQP
B1 was tested, and the “leukocyte number on the first treatment day” value [5] was 6.4e+09 L⁻¹, the “leukocyte number on the seventh treatment day” value [5] was 1.117e+10 L⁻¹ and the “leukocyte number on the third treatment day” value [5] was 1.183e+10 L⁻¹. For the same molecule, the leukocyte number before ([5]; baseline after CP modeling, before treatment) was 4.55e+09 L⁻¹.

B2: rLZ-8-Fc1: fusion protein of ganoderma immunoregulatory protein (LZ-8) and human IgG1Fc fragment, SEQ ID NO. 2 (protein)
chain: RPSDTALIFRLAWDVKKLSFDYTPNWGRGNPNNFIDTVTFPKVLTDKAYTYRVAVSGRNLGVKPSYAVESDGSGKVNFLEYNSGYGIADTNTIGVFVVDPDTNNDFIIAGWNGGGGSSEPKSCDKTHTCPPCPAPELLGGPSVFLFPPKPKDTLMISRTPEVTCVVVDVSHEDPEVKFNWYVDGVEVHNAKTKPREEGYNSTYRVVSVLTVLHGDWLNGKEYKCKVSNKALPAPIEKTISKAKGGPREPGVYTLPPSREEMTKNGVSLTCLVKGFYPSDIAVEWESNGGPENNYKTTPPVLDSDGSFFLYSKLTVDKSRWGGGNVFSCSVMHEALHNHYTGKSLSLSPGK
modifications: rLZ-8-Fc1 sequence
With B2 the “OD450, promotion of cell proliferation” value ([4]; protein 5.0 × 10^−9 mol/L) was 0.543 ± 0.26, the “OD450, promotion of cell proliferation” value ([4]; protein 10.0 × 10^−9 mol/L) was 0.937 ± 0.29 and the “OD450, promotion of cell proliferation” value ([4]; protein 15.0 × 10^−9 mol/L) was 1.114 ± 0.31. The “promotion of spleen cell proliferation compared with rLZ-8” value [4] was “significantly decreased”.
